The source of these data is patent US10246455B2, “Histone deacetylase inhibitors” (Taipei Medical University, priority 2014, dated 2019).

The structures appear in SMILES notation.

Data set [1] relates to PC3 prostate cancer cells. As to the kind of experiment: Two dimensional cell growth inhibitory assay (MTT): PC3. The settings on record: Homo sapiens.
Experimental: For the two dimensional assay, cancel cells in the logarithmic phase were cultured in complete medium in 96-well plates at 37° C. with 5% CO2 for overnight incubation, and treated with various concentrations of test compounds for three generative times. Cells were then incubated with a serum free medium containing 3-(4,5-dimethylthiazol-2-yl)-2,5-diphenyltetrazolium bromide (MTT) at a final concentration of 0.5 mg/mM for four hours. MTT was converted to formazan by metabolically viable cells. Formazan was then solublized in 50% DMF solution containing 20% SDS at 37° C. overnight. Absorbance was measured at 570 nm using a spectramax M5 microplate reader (Molecular Devices, UK).
Data set [2] has as its system PC3 prostate cancer cells. Kind of data set: Three dimensional cell growth inhibitory assay (cellular spheres, MTT, microscopy): PC3. The data set is classed as cell-based, human. The settings on record: Homo sapiens. As for the experimental part: For the three dimensional assay, cells in the logarithmic phase were cultured in 50% Matrigel-containing complete medium in 96-well plates at 37° C. with 5% CO2 for five days incubation, and treated with appropriate concentrations of test compounds for three generative times. Images of spheroids were taken under a microscope, and spheroid cell survival was determined by MTT assays.
The cells (in the 2D culture) and the cellular spheres (in the 3D culture) were treated with test compounds for 72 hours, and then subjected to the MTT colorimetric assay. Each value represents the mean of three independent experiments. Cellular spheres formed in semi-solid and drug effect on cellular spheres were examined using phase-contrast light microscopy.
More specifically, cellular spheres formed in semi-solid and drug effect on cellular spheres were examined using phase-contrast light microscopy. 3D structures of cells were analyzed using 4× magnification, 10× magnification, and 20× magnification.

In data set [3] the test system is KB cell line (oral carcinoma). As to the kind of experiment: IC50 in human cancer cell lines (inhibiting HDAC): KB. To be noted: Homo sapiens, read-out: IC50, inhibiting HDAC in human cancer cell lines, KB, oral carcinoma.
Data set [4] has as its system C6 glioma cell line. Kind of data set: Cell death in C6 glioma in vitro (LDH assay). The settings on record: rat C6 glioma, 30 uM, after 3 days. The format is cell-based. As for the experimental part: Cell death was analyzed by a lactate dehydrogenase (LDH) assay. The culture medium was centrifuged after the experiment and the activity of LDH released into culture media was detected with a LDH cytotoxicity detection kit (Roche). The percentage of cytotoxicity was determined by the equation: [(Experimental group−Control group)/(Triton-100-treated group (100% maximal death)−Control group)]×100%.

Data set [5] deals with KB-VIN10 (KB resistant). As to the kind of experiment: IC50 against human cancer cell lines: KB-VIN10. To be noted: read-out: IC50 ± SD against human cancer cell lines; KB-VIN10, KB resistant.
In data set [6] the test system is A549 (non-small-cell lung carcinoma). Kind of data set: IC50 in human cancer cell lines (inhibiting HDAC): A549. To be noted: read-out: IC50, inhibiting HDAC in human cancer cell lines; A549, non-small-cell lung carcinoma.
Where [7] appears, read: read-out: IC50 value 2D Culture.
[8] abbreviates: Table 6, cell line not given, read-out: IC50 value 3D Culture.

`COc1cccc2c1C(=O)c1c(O)c3c(c(O)c1C2=O)C[C@@](O)(C(=O)CO)C[C@@H]3O[C@H]1C[C@H](N)[C@H](O)[C@H](C)O1` [Adriamycin]: the IC50 in data set [1] (read-out: 2D Culture) turned out to be 0.07 ± 0.03 µM; in data set [1] (setting [7]) it was 0.07 ± 0.03 µM; in data set [2] (setting [8]) it was 0.72 ± 0.04 µM; in data set [2] (read-out: 3D Culture) it was 0.72 ± 0.04 µM.
For `O=C(/C=C/c1cccc(S(=O)(=O)n2ccc3ccccc32)c1)NO` [Compound 1, (E)-3-(3-(1H-indol-1-ylsulfonyl)phenyl)-N-hydroxyacrylamide], the melting point (commonly the temperature, or range, at which the solid turns liquid) lay in the range of 188 to 191 °C. Further, the IC50 in data set [3] was < 6 µM.
On the same counts, the results for `O=C(/C=C/c1cccc(S(=O)(=O)N2CCc3ccccc32)c1)NO` [Compound 2, (E)-N-hydroxy-3-(3-(indolin-1-ylsulfonyl)phenyl)acrylamide] are 207 to 209 °C and < 6 µM.
In the case of `O=C(/C=C/c1cccc(S(=O)(=O)n2ccc3cncnc32)c1)NO` [Compound 4, (E)-3-(3-((7H-Pyrrolo[2,3-d]pyrimidin-7-yl)sulfonyl)phenyl)-N-hydroxyacrylamide], in data set [3], the IC50 was < 6 µM.
Compound `O=C(/C=C/c1cccc(S(=O)(=O)n2ccc3ncccc32)c1)NO` [Compound 5, (E)-3-(3-(1H-Pyrrolo[3,2-b]pyridin-1-ylsulfonyl)phenyl)-N-hydroxyacrylamide] came in with a melting point of 148 to 150 °C.
As for `O=C(/C=C/c1cccc(S(=O)(=O)n2ccc3ccncc32)c1)NO` [Compound 6, (E)-3-(3-(1H-Pyrrolo[2,3-c]pyridin-1-ylsulfonyl)phenyl)-N-hydroxyacrylamide], the melting point fell in the range of 128 to 129 °C.
With `COc1ccc(S(=O)(=O)N2CCc3cc(/C=C/C(=O)Nc4ccccc4N)cnc32)cc1` [Compound 6a, (E)-N-(2-aminophenyl)-3-(1-(4-methoxyphenylsulfonyl)-2,3-dihydro-1H-pyrrolo[2,3-b]pyridin-5-yl)acrylamide], the IC50 in data set [3] is < 6 µM.
`O=C(/C=C/c1cccc(S(=O)(=O)N2CCc3cccnc32)c1)NO` [Compound 8, (E)-3-(3-(2,3-Dihydro-1H-pyrrolo[2,3-b]pyridin-1-ylsulfonyl)phenyl)-N-hydroxyacrylamide] returned a melting point of 228 to 230 °C. Further, in data set [3], the IC50 is < 6 µM.
For the compound `O=C(/C=C/c1ccc(S(=O)(=O)n2ncc3ccccc32)cc1)NO` [Compound 9, (E)-3-(4-(1H-Indazol-1-ylsulfonyl)phenyl)-N-hydroxyacrylamide], in data set [3], the IC50 was < 6 µM.
On to `O=C(/C=C/c1ccc(S(=O)(=O)n2ccc3ncccc32)cc1)NO` [Compound 10, (E)-3-(4-(1H-Pyrrolo[3,2-b]pyridin-1-ylsulfonyl)phenyl)-N-hydroxyacrylamide], for which the melting point fell in the range of 188 to 190 °C. For the same compound, the IC50 in data set [3] is < 6 µM.
As to `COc1ccc(S(=O)(=O)N2CCc3cc(C(=O)NO)cnc32)cc1` [Compound 10a, N-hydroxy-1-(4-methoxyphenylsulfonyl)-2,3-dihydro-1H-pyrrolo[2,3-b]pyridine-5-carboxamide], the IC50 in data set [3] is < 6 µM.
With `O=C(/C=C/c1ccc(S(=O)(=O)n2ccc3ccncc32)cc1)NO` [Compound 11, (E)-3-(4-(1H-Pyrrolo[2,3-c]pyridin-1-ylsulfonyl)phenyl)-N-hydroxyacrylamide], the melting point was in the range of 167 to 169 °C. In addition, the IC50 in data set [3] was < 6 µM.
Consider `O=C(/C=C/c1ccc(S(=O)(=O)n2ccc3cccnc32)cc1)NO` [Compound 12, (E)-3-(4-(1H-Pyrrolo[2,3-b]pyridin-1-ylsulfonyl)phenyl)-N-hydroxyacrylamide], for which the melting point is 169 to 170 °C.
In turn, `O=C(/C=C/c1ccc(S(=O)(=O)N2CCc3cccnc32)cc1)NO` [Compound 13, (E)-3-(4-(2,3-Dihydro-1H-pyrrolo[2,3-b]pyridin-1-ylsulfonyl)phenyl)-N-hydroxyacrylamide] gave a melting point of 220 to 223 °C. In addition, the IC50 in data set [3] was < 6 µM.
As to `Nc1ccccc1NC(=O)c1ccc(Cn2ccc3ccccc32)cc1` [Compound 14, 4-((1H-Indol-1-yl)methyl)-N-(2-aminophenyl)benzamide], the IC50 in data set [3] is < 6 µM.
As for `Nc1ccccc1NC(=O)c1ccc(CN2CCc3ccccc32)cc1` [Compound 15, N-(2-Aminophenyl)-4-(indolin-1-ylmethyl)benzamide], in data set [3], the IC50 is < 6 µM.
`Nc1ccccc1NC(=O)c1ccc(Cn2ncc3ccccc32)cc1` [Compound 16, 4-((1H-Indazol-1-yl)methyl)-N-(2-aminophenyl)benzamide] registered a melting point of 185 to 188 °C. Further, the IC50 in data set [3] is < 6 µM.
The compound `Nc1ccccc1NC(=O)c1ccc(Cn2ccc3ncccc32)cc1` [Compound 17, 4-((1H-Pyrrolo[3,2-b]pyridin-1-yl)methyl)-N-(2-aminophenyl)-benzamide] registered a melting point of 116 to 118 °C. In addition, in data set [3], the IC50 was < 6 µM.
On the same counts, the results for `Nc1ccccc1NC(=O)c1ccc(Cn2ccc3cnccc32)cc1` [Compound 18, 4-((1H-Pyrrolo[3,2-c]pyridin-1-yl)methyl)-N-(2-aminophenyl)benzamide] are 165 to 167 °C and < 6 µM.
On to `Nc1ccccc1NC(=O)c1ccc(Cn2ccc3ccncc32)cc1` [Compound 19, 4-((1H-Pyrrolo[2,3-c]pyridin-1-yl)methyl)-N-(2-aminophenyl)-benzamide], for which the melting point fell in the range of 154 to 155 °C. Moreover, in data set [3], the IC50 was < 6 µM.
For the compound `Nc1ccccc1NC(=O)c1ccc(Cn2ccc3cccnc32)cc1` [Compound 20, 4-((1H-Pyrrolo[2,3-b]pyridin-1-yl)methyl)-N-(2-aminophenyl)benzamide], the melting point lay in the range of 158 to 159 °C. Moreover, in data set [3], the IC50 was < 6 µM.
`Nc1ccccc1NC(=O)c1ccc(CN2CCc3cccnc32)cc1` [Compound 21, N-(2-Aminophenyl)-4-((2,3-dihydro-1H-pyrrolo[2,3-b]pyridin-1-yl)methyl)benzamide] returned a melting point of 105 to 107 °C. Further, the IC50 in data set [3] is < 6 µM.
Consider `O=C(NO)c1ccc(Cn2ccc3cccnc32)cc1` [Compound 23, N-Hydroxy-4-pyrrolo[2,3-b]pyridin-1-ylmethyl-benzamide], for which, in data set [3], the IC50 is < 6 µM.
For `CC(=O)O[C@H]1C(=O)[C@@]2(C)[C@H]([C@H](OC(=O)c3ccccc3)[C@]3(O)C[C@H](OC(=O)[C@H](O)[C@@H](NC(=O)c4ccccc4)c4ccccc4)C(C)=C1C3(C)C)[C@]1(OC(C)=O)CO[C@@H]1C[C@@H]2O` [Paclitaxel], the IC50 in data set [1] (read-out: 2D Culture) was found to be 0.0002 ± 0.0001 µM; in data set [1] (setting [7]) it was 0.0002 ± 0.0001 µM; in data set [2] (setting [8]), 5.85 ± 0.07 µM; in data set [2] (read-out: 3D Culture), 5.85 µM.
For `O=C(CCCCCCC(=O)Nc1ccccc1)NO` [SAHA, reference compound], the “induction of cell death (LDH)” value in data set [4] is “about 70%”. In addition, the figures for the IC50 in data set [5] and in data set [6] were 1.85 ± 0.526 µM and 1.54 ± 0.08 µM, respectively.
On to `CC[C@]1(O)C[C@H]2CN(CCc3c([nH]c4ccccc34)[C@@](C(=O)OC)(c3cc4c(cc3OC)N(C=O)[C@H]3[C@@](O)(C(=O)OC)[C@H](OC(C)=O)[C@]5(CC)C=CCN6CC[C@]43[C@@H]65)C2)C1` [Vincristine], for which the IC50 is 0.00075 ± 0.00064 µM in data set [1] (read-out: 2D Culture), 0.00075 ± 0.00064 µM in data set [1] (setting [7]), 0.0025 ± 0.00071 µM in data set [2] (setting [8]) and 0.0025 ± 0.00071 µM in data set [2] (read-out: 3D Culture).
